Our source for the IC50 values is BindingDB's records for doi:10.1021/jm00048a015 (Pfizer, 1994).

The target of this assay is Gastrin/cholecystokinin type B receptor (Cavia porcellus). Briefly: In vitro affinity to the cholecystokinin type B receptor in guinea pig cortex assayed using [125I]BH-CCK-8 as radioligand.

`Cc1cccc(NC(=O)N[C@@H]2C[C@H](c3ccccc3)c3ccccc3N(CC(=O)OC(C)(C)C)C2=O)c1` [[(3R,5R)-2-Oxo-5-phenyl-3-(3-m-tolyl-ureido)-2,3,4,5-tetrahydro-benzo[b]azepin-1-yl]-acetic acid tert-butyl ester]: the concentration for half-maximal inhibition (IC50) (in general, the concentration that inhibits the measured activity by half) was 2.5 nM. The same measure for `Cc1ccccc1NC(=O)N[C@@H]1C[C@H](c2ccccc2)c2ccccc2N(CC(=O)NC(C)(C)C)C1=O` [N-tert-Butyl-2-[(3R,5R)-2-oxo-5-phenyl-3-(3-o-tolyl-ureido)-2,3,4,5-tetrahydro-benzo[b]azepin-1-yl]-acetamide]: 55 nM; for `CC(C)(C)NC(=O)CN1C(=O)[C@H](NC(=O)Nc2cccc(Cl)c2)C[C@H](c2ccccc2)c2cc(Cl)ccc21` [N-tert-Butyl-2-{(3R,5R)-7-chloro-3-[3-(3-chloro-phenyl)-ureido]-2-oxo-5-phenyl-2,3,4,5-tetrahydro-benzo[b]azepin-1-yl}-acetamide]: 24 nM; for `Cc1ccc2c(c1)N(CC(=O)NC(C)(C)C)C(=O)[C@H](NC(=O)Nc1cccc(Cl)c1)C[C@@H]2C1CCCCC1` [N-tert-Butyl-2-{(3R,5R)-3-[3-(3-chloro-phenyl)-ureido]-5-cyclohexyl-8-methyl-2-oxo-2,3,4,5-tetrahydro-benzo[b]azepin-1-yl}-acetamide]: 0.6 nM. Next, `Cc1ccc2c(c1)N(CC(=O)NC(C)(C)C)C(=O)[C@H](NC(=O)Nc1cccc(Cl)c1)C[C@@H]2C(C)C` [N-tert-Butyl-2-{(3R,5R)-3-[3-(3-chloro-phenyl)-ureido]-5-isopropyl-8-methyl-2-oxo-2,3,4,5-tetrahydro-benzo[b]azepin-1-yl}-acetamide]: 3.4 nM; `CN(C(=O)CN1C(=O)[C@H](NC(=O)Nc2cccc(Cl)c2)C[C@H](c2ccccc2)c2ccccc21)C(C)(C)C` [N-tert-Butyl-2-{(3R,5R)-3-[3-(3-chloro-phenyl)-ureido]-2-oxo-5-phenyl-2,3,4,5-tetrahydro-benzo[b]azepin-1-yl}-N-methyl-acetamide]: 1.5 nM; `Cc1ccc(NC(=O)N[C@@H]2C[C@H](c3ccccc3)c3ccccc3N(CC(=O)NC(C)(C)C)C2=O)cc1` [N-tert-Butyl-2-[(3R,5R)-2-oxo-5-phenyl-3-(3-p-tolyl-ureido)-2,3,4,5-tetrahydro-benzo[b]azepin-1-yl]-acetamide]: 35 nM. Next, `CCC(C)(C)NC(=O)CN1C(=O)[C@H](NC(=O)Nc2cccc(Cl)c2)C[C@H](c2ccccc2)c2ccccc21` [2-{(3R,5R)-3-[3-(3-Chloro-phenyl)-ureido]-2-oxo-5-phenyl-2,3,4,5-tetrahydro-benzo[b]azepin-1-yl}-N-(1,1-dimethyl-propyl)-acetamide]: 7.6 nM.

`Cc1ccc2c(c1)N(CC(=O)OC(C)(C)C)C(=O)[C@H](NC(=O)Nc1cccc(Cl)c1)C[C@@H]2c1ccccc1` [{(3R,5R)-3-[3-(3-Chloro-phenyl)-ureido]-8-methyl-2-oxo-5-phenyl-2,3,4,5-tetrahydro-benzo[b]azepin-1-yl}-acetic acid tert-butyl ester] showed an IC50 of 2.2 nM. The same measure for `Cc1cccc(NC(=O)N[C@@H]2C[C@H](c3ccccc3)c3ccccc3N(CC(=O)NC(C)(C)C)C2=O)c1` [N-tert-Butyl-2-[(3R,5R)-2-oxo-5-phenyl-3-(3-m-tolyl-ureido)-2,3,4,5-tetrahydro-benzo[b]azepin-1-yl]-acetamide]: 10.1 nM. For `CC(C)(C)NC(=O)CN1C(=O)[C@H](NC(=O)Nc2cccc(Cl)c2)C[C@H](c2cccc(Cl)c2)c2ccccc21` [N-tert-Butyl-2-{(3R,5R)-5-(3-chloro-phenyl)-3-[3-(3-chloro-phenyl)-ureido]-2-oxo-2,3,4,5-tetrahydro-benzo[b]azepin-1-yl}-acetamide], the concentration for half-maximal inhibition (IC50) worked out at 4 nM. The compound `Cc1ccc2c(c1)N(CC(=O)NC(C)(C)C)C(=O)[C@H](NC(=O)Nc1cccc(Cl)c1)C[C@@H]2Cc1ccccc1` [2-{(3R,5S)-5-Benzyl-3-[3-(3-chloro-phenyl)-ureido]-8-methyl-2-oxo-2,3,4,5-tetrahydro-benzo[b]azepin-1-yl}-N-tert-butyl-acetamide] showed an IC50 of 1.4 nM. `Cc1ccc2c(c1)[C@@H](c1ccccc1)C[C@@H](NC(=O)Nc1cccc(Cl)c1)C(=O)N2CC(=O)NC(C)(C)C` [N-tert-Butyl-2-{(3R,5R)-3-[3-(3-chloro-phenyl)-ureido]-7-methyl-2-oxo-5-phenyl-2,3,4,5-tetrahydro-benzo[b]azepin-1-yl}-acetamide] came in with a half-inhibitory concentration (IC50) of 32 nM.

Compound `COc1cccc(NC(=O)N[C@@H]2C[C@H](c3ccccc3)c3ccccc3N(CC(=O)NC(C)(C)C)C2=O)c1` [N-tert-Butyl-2-{(3R,5R)-3-[3-(3-methoxy-phenyl)-ureido]-2-oxo-5-phenyl-2,3,4,5-tetrahydro-benzo[b]azepin-1-yl}-acetamide] displayed an IC50 of 30.4 nM.
